We go through one substance from US10093973B2, “Polymerase compositions and methods” (LIFE TECHNOLOGIES CORPORATION, priority 2009, dated 2018).

Positions count from the first letter of the chain named.

Holding throughout (assay type): biochemical
The subject of experiment [1] is AF647-C6-dG6P and Alexa Fluor 546 dye-labeled primer-template duplex. Kind of experiment: Stopped-flow measurement of tpol (nucleotide incorporation kinetics). Set-up: unit not given here. The note with it: tpol = 1/kpol; 7 μM AF647-C6-dG6P, 330 nM polymerase, 100 nM template/primer duplex, 2 mM MnCl2. How it is done:
In this example, the t−1 and tpol values of a Phi-29 polymerase comprising the amino acid sequence of SEQ ID NO: 1 and a modified B103 polymerase comprising the amino acid sequence of SEQ ID NO: 8 (referred to as “mB103 in the table below) and further including amino acid substitutions at various positions were measured using a stopped-flow procedure. The stopped-flow techniques for measuring tpol (1/kpol) followed the techniques described by MP Roettger (2008 Biochemistry 47:9718-9727; M. Bakhtina 2009 Biochemistry 48:3197-320).
Stopped-Flow Measurements of tpol
The template sequence (SEQ ID NO: 44) further included an Alexa Fluor 546 dye moiety bonded to the 5′ position of the template.
The kinetics of nucleotide incorporation by each polymerase was measured in an Applied Photophysics SX20 stopped-flow spectrometer by monitoring changes in fluorescence from the dye-labeled primer-template duplex complexed to enzyme, following the mixing of the enzyme-DNA complex with dye-labeled nucleotides. These dye-labeled nucleotides comprise terminal-phosphate-labeled nucleotides having an alkyl linker with a functional amine group attached to the dye, and have the general structure shown in FIG. 11. This structure includes a sugar bonded to a hexaphosphate chain at the 5′ carbon position, and to a nucleotide base (denoted as “N”). The terminal phosphate group of the hexaphosphate is linked to a 6-carbon linker, and the other end of the 6-carbon linker is attached to a dye moiety (denoted as “dye”), typically through an amide bond. In this example, the particular dye-labeled nucleotide added was a labeled nucleotide hexaphosphate comprising a guanine base at the N (base) position and an Alexa Fluor 647 (AF647) at the dye position, and is referred to herein as “AF647-C6-dG6P”.
The primer and template were annealed to form a dye-labeled primer-template duplex using standard methods. This duplex was preincubated with polymerase. The mixture included 330 nM recombinant DNA polymerase, 100 nM template/primer duplex in buffer (“reaction buffer”) comprising 50 mM Tris-HCl, pH 7.5, 50 mM NaCl, 4 mM DTT, 0.2% BSA, and 2 mM MnCl2. The dye-labeled nucleotide AF647-C6-dG6P was then added to a final concentration of 7 μM, and the resulting fluorescence was monitored over time.
The averaged (5 traces) stopped-flow fluorescence traces (>1.5 ms) were fitted with a double exponential equation (1) to extrapolate the rates of the nucleotide binding and product release, Fluorescence=A1*e^−k1*t+A2*e^−kpol*t+C (equation 1) where A1 and A2 represent corresponding fluorescence amplitudes, C is an offset constant, and k1 and kpol are the observed rate constants for the fast and slow phases of the fluorescence transition, respectively.

Experiment [2] has as its system AF647-C6-dG6P in [enzyme.DNA.nucleotide] ternary complex with dideoxy-primer/template duplex. Kind of experiment: Stopped-flow measurement of t−1 (nucleotide dissociation from ternary complex). Set-up: unit not given here. The note with it: t−1 = 1/k−1; ternary complex with 7 μM AF647-C6-dG6P chased with 50 μM non-labeled nucleotide, 2 mM MnCl2. As to the method: Stopped-Flow Measurements of t−1
The stopped-flow techniques for measuring t−1 ([…]) followed the techniques described by M. Bakhtina (2009 Biochemistry 48:3197-3208).
The rate of the nucleotide dissociation ([…]) from the ternary complex of [enzyme.DNA.nucleotide] was measured in an Applied Photophysics SX20 stopped-flow spectrometer by monitoring changes […] a duplex Alexa fluor 546 dye-labeled-DNA template following the mixing of the [enzyme.DNA.labeled nucleotide] ternary complex with 50 μM cognate non-labeled deoxynucleoside triphosphate in a buffer containing 50 mM Tris-HCl (pH 7.5), 50 mM NaCl, 4 mM DTT, 0.2% BSA, and 2 mM MnCl2.
The ternary complexes were prepared using: 330 nM polymerase, 100 nM template/primer duplex, and 7 μM terminal phosphate-labeled nucleotides (AF647-C6-dG6P).
The averaged stopped-flow fluorescence traces (>1.5 msec) were fitted with a single exponential equation (2) to extrapolate the rate of the nucleotide dissociation (k−1) from the [enzyme.DNA.nucleotide] ternary complex. Fluorescence=A1*e^−k−1*t+C (equation 2) where A1 represents the corresponding fluorescence amplitude, C is an offset constant, and k−1 and the observed rate constants for the fluorescence transition.

The subject of experiment [3] is ωdN4P and non-extendible AF546 primer:template duplex. Kind of experiment: Stopped-flow t−1 measurement of Example 7. The note with it: modified versus reference polymerase, ωdN4P 14 μM. How it is done:
In this example, the t−1 values of an exemplary modified polymerase comprising the amino acid of SEQ ID NO: 8 and an exemplary reference polymerase comprising the amino acid sequence of SEQ ID NO: 20 were measured and compared. These kinetic parameters were evaluated using an assay system wherein mixtures comprising a test polymerase and a primer:template duplex were mixed in a stopped-flow assay with nucleotides. To measure t−1, the primer used to form the primer:template duplex was a non-extendible primer including a dideoxynucleotide at its 3′ end, and the template was a synthetic DNA template comprising a donor Alexa Fluor 546 moiety at its 5′ end. […] The ternary complex was mixed with unlabeled nucleotides in a stopped-flow experiment, and the resulting fluorescence was monitored as described below. […]
Preincubated mixtures comprising 200 nM of a primer:templex duplex, 660 nM of test polymerase, and 14 μM of ωdN4P were prepared and then mixed with a solution comprising the unlabeled cognate nucleotide (50 μM) in a stopped-flow apparatus. The fluorescence at both 546 nm and 647 nm was monitored following mixing. The averaged stopped-flow fluorescence traces were fitted with a single exponential function having the form of Equation (1) to extrapolate the t−1 value of the test polymerase.

In experiment [1], “mB103 (SEQ ID: 8): B103 polymerase triple mutant with D166A, F383L and D384N” registered a tpol of 14. The “t−1” value in experiment [2] came out at 16. Moreover, the “estimated t−1 values” in experiment [3] is on record as “comparable”.
